Assay results published in patent US20210369684A1 (MOUNT TAM THERAPEUTICS, INC., priority 2018, published 2021).
Where “and” joins values, the source holds several entries; their conditions need not be identical. Equal entries are not always repeated.

Tests used:
[1] = Whole blood concentrations after IP administration to mice (LC-MS/MS); assay type: in vivo, mouse; conditions: 10 mg/kg IP QD x 3 days; for Formula II Concentrations in Mouse Whole Blood: individual animals 10, 11, 12
Procedure: Shown below are whole blood concentrations following administration of the compound of Formula II to mice. The compound of Formula II was administered to mice at 2 mg/kg or 10 mg/kg for three days and the concentration of the compound in whole blood determined. These determinations were made using protein precipitation, liquid chromatography (LC), and mass spectrometry (MS/MS). Ten μl aliquots of whole blood and matrix calibration standards were distributed in a 96-well plate; 10 μl aliquots of blank matrix for matrix blanks and control blanks were included as controls. Ten μl of water was added to each sample followed by vortexing. One hundred sixty […] of internal standard was added to each sample except the matrix blanks; 160 μl 70:30 water:acetonitrile (ACN) was added to matrix blanks. This was followed by a […]. One hundred fifty μl of the resultant supernatant was then transferred to a new 96-well plate and the samples blown to dryness at 35° C. The resultant product was then reconstituted with 90 μl ACN.

Oral bioavailability = conditions: in vivo
Text: In order to measure bioavailability in vivo, a compound may be administered to a test animal (e.g. mouse or rat) both intraperitoneally (i.p.) or intravenously (i.v.) and orally (p.o.) and blood samples are taken at regular intervals to examine how the plasma concentration of the drug varies over time. The time course of plasma concentration over time can be used to calculate the absolute bioavailability of the compound as a percentage using standard models. An example of a typical protocol is described below. […] The time-course of plasma or whole blood concentrations can then be used to derive key parameters such as the area under the plasma or blood concentration-time curve (AUC-which is directly proportional to the total amount of unchanged drug that reaches the systemic circulation), the maximum (peak) plasma or blood drug concentration, the time at which maximum plasma or blood drug concentration occurs (peak time), additional factors which are used in the accurate determination of bioavailability include: the compound's terminal half-life, total body clearance, steady-state volume of distribution and F %. These parameters are then analyzed by non-compartmental or compartmental methods to give a calculated percentage bioavailability, for an example of this type of method see Gallant-[…] et al, 2000 and […] et al, 1998, and references therein.

6-OHDA injected mice [2] = assay: Anti-TH immunohistochemistry, 6-OHDA-induced striatal denervation; assay type: in vivo, mouse
Procedure: Immunohistochemistry analysis using anti-tyrosine hydroxylase (TH) antibody was performed in mouse midbrain sections to quantify 6-OHDA-induced striatal denervation in mice injected with 6-OHDA and non-injected (control) sides of the brain. […] In contrast, both the 6-OHDA/rapamycin-treated and the 6-OHDA/Formula II-treated sides of the brain show increased staining with the anti-TH antibody, as indicated by the dark shading in those figures. FIG. 3B presents the mean and standard error of the mean (SEM) of the integrated density of anti-TH antibody staining in the striatum, as well as statistical analysis of the results for the groups of mice.

TORC1 = target: T1, TORC1 (Homo sapiens, UniProt P42345+P62942); assay: IC50 in PC3 cells, TORC1; assay type: cell-based
T1 construct: endogenous in cells; host or cells: PC3 cells

6-OHDA injected mice [3] = assay: Anti-TH immunohistochemistry, 6-OHDA-induced neuronal loss (TH-positive somas in SN); assay type: in vivo, mouse
Procedure: Immunohistochemistry analysis using anti-tyrosine hydroxylase (TH) antibody was also performed to quantify 6-OHDA-induced neuronal loss in mice injected with 6-OHDA and non-injected (control) sides of the brain. […] FIG. 4B presents the mean and standard error of the mean (SEM) as well as statistical analysis of the results.

6-OHDA injected mice [4] = assay: 6-OHDA cylinder test (motor performance, contralateral touches); assay type: in vivo, mouse; conditions: 10 mg/kg, FIG. 2B
Procedure: An analysis of the neuroprotective effects of the compound of Formula II on motor performance was performed using the 6-OHDA cylinder test (FIG. 2A) which evaluates spontaneous motor changes associated with dopamine depletion in the striatum of 6-OHDA injected mice. […] Control mice were administered the vehicle control only. […] The data is presented in FIG. 2B as mean and standard error of the mean (SEM). Statistical analyses as compared to baseline mice were performed using the one-way Anova test (*: p<0.05; n.s.: not significant). […] Data is presented as mean and SEM. Statistical analyses were performed using One-way Anova test (*: p<0.05; ***: p<0.001. n.s.: not significant.)

TORC2 = target: T2, TORC2 (Homo sapiens, UniProt P42345+P62942); assay: IC50 in PC3 cells, TORC2; assay type: cell-based
T2 construct: endogenous in cells; host or cells: PC3 cells

## CO[C@H]1C[C@@H]2CC[C@@H](C)[C@@](O)(C2)C(=O)C(=O)N2CCCC[C@H]2C(=O)O[C@H]([C@H](C)C[C@H]2C[C@H]3C[C@@H]2C[C@@H]3O)CC(=O)[C@H](C)/C=C(\C)[C@@H](O)[C@@H](OC)C(=O)[C@H](C)C[C@H](C)/C=C/C=C/C=C/1C [Formula II, C37-[(1R,2S,4R,5S)-5-hyhroxybicyclo[2.2.1]heptane] rapamycin]
[1]; Day 1, 6.00 h, mean
  Formula II Concentrations in Mouse Whole Blood, Mean: 1165 ng/mL
[1]; Day 1, 24.0 h
  Formula II Concentrations in Mouse Whole Blood: 222 ng/mL and 181 ng/mL and 210 ng/mL
[1]; Day 1, 24.0 h, mean
  Formula II Concentrations in Mouse Whole Blood, Mean: 204 ng/mL
[1]; Day 2, 1.00 h
  Formula II Concentrations in Mouse Whole Blood: 3410 ng/mL and 2970 ng/mL and 546 ng/mL
[1]; Day 2, 1.00 h, mean
  Formula II Concentrations in Mouse Whole Blood, Mean: 2309 ng/mL
[1]; Day 2, 2.00 h
  Formula II Concentrations in Mouse Whole Blood: 3670 ng/mL and 3930 ng/mL and 2370 ng/mL
[1]; Day 2, 2.00 h, mean
  Formula II Concentrations in Mouse Whole Blood, Mean: 3323 ng/mL
[1]; Day 2, 6.00 h
  Formula II Concentrations in Mouse Whole Blood: 2770 ng/mL and 3390 ng/mL and 609 ng/mL
[1]; Day 2, 6.00 h, mean
  Formula II Concentrations in Mouse Whole Blood, Mean: 2256 ng/mL
[1]; Day 2, 24.0 h
  Formula II Concentrations in Mouse Whole Blood: 123 ng/mL and 336 ng/mL and 78.0 ng/mL
[1]; Day 2, 24.0 h, mean
  Formula II Concentrations in Mouse Whole Blood, Mean: 179 ng/mL
[1]; Day 3, 1.00 h
  Formula II Concentrations in Mouse Whole Blood: AQL and 3420 ng/mL and 987 ng/mL
[1]; Day 3, 1.00 h, mean (animal 10 AQL)
  Formula II Concentrations in Mouse Whole Blood, Mean: 2204 ng/mL
[1]; Day 3, 2.00 h
  Formula II Concentrations in Mouse Whole Blood: 5170 ng/mL and 3650 ng/mL and 777 ng/mL
[1]; Day 3, 2.00 h, mean
  Formula II Concentrations in Mouse Whole Blood, Mean: 3199 ng/mL
[1]; Day 3, 6.00 h
  Formula II Concentrations in Mouse Whole Blood: 3330 ng/mL and 2890 ng/mL and 730 ng/mL
[1]; Day 3, 6.00 h, mean
  Formula II Concentrations in Mouse Whole Blood, Mean: 2317 ng/mL
[1]; Day 3, 24.0 h
  Formula II Concentrations in Mouse Whole Blood: 223 ng/mL and 323 ng/mL and 124 ng/mL
[1]; Day 3, 24.0 h, mean
  Formula II Concentrations in Mouse Whole Blood, Mean: 223 ng/mL
Oral bioavailability
  bioavailability: ~47%
6-OHDA injected mice [2]; 6-OHDA injected mice, FIG. 3A
  6-OHDA-induced striatal denervation (anti-TH staining) compared with rapamycin: decreased 6-OHDA-induced denervation as compared to rapamycin
  6-OHDA-induced striatal denervation (anti-TH staining) compared with vehicle control: decreased 6-OHDA-induced denervation as compared to vehicle control
6-OHDA injected mice [2]; one-way ANOVA, FIG. 3B
  integrated density of anti-TH staining in striatum, p versus vehicle control: < 0.001
TORC1
  IC50: 0.099 nM
TORC1; from IC50 values
  TORC1/TORC2 Selectivity: 50x
6-OHDA injected mice [3]; 6-OHDA injected mice, FIG. 4A
  6-OHDA-induced neuronal loss (TH-positive somas, SN) compared with vehicle control: decreased 6-OHDA-induced neuronal loss as compared to vehicle control
6-OHDA injected mice [3]; one-way ANOVA, FIG. 4B
  TH+ neuronal loss, p versus vehicle control: < 0.01
6-OHDA injected mice [4]
  number of touches compared with rapamycin and vehicle control: clearly outperformed rapamycin and the vehicle control
6-OHDA injected mice [4]; three days pre-treatment before 6-OHDA (80 μg)
  contralateral touches, difference from baseline (one-way Anova): non-significant difference from baseline
TORC2
  IC50: 5 nM
